PubChem BioAssay AID1963837 (Molecular Pharmacology Branch, DTP, NCI, 2024)

The molecules below were run on 843126-344-R-J1-PDC complex spheroid viability (assay: Anticancer human tumor 843126-344-R-J1-PDC patient-derived melanoma cell line growth inhibition [POLQ]). Conditions: second compound 1 µM; first compound 0.1 µM; active compounds read low.
Method in brief: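 Three-cell-type spheroids modelling solid tumor plus stroma served as the readout system; POL inhibitors were tested individually and in combination, concentration ranges set by clinical Cmax where known.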
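Note: spheroids exposed to drugs for seven days before readout.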

Structure (SMILES) | viability, T/C
CCc1c2c(nc3ccc(O)cc13)-c1cc3c(c(=O)n1C2)COC(=O)[C@]3(O)CC + Nc1ccc(C#CCN(C(=O)Cc2ncc(C(F)(F)F)cc2C(F)(F)F)c2ccc(F)cc2)nn1 | 62.8%
COc1cccc(OCCCN)c1-c1cc(Nc2cnc(C#N)cn2)n[nH]1 + Nc1ccc(C#CCN(C(=O)Cc2ncc(C(F)(F)F)cc2C(F)(F)F)c2ccc(F)cc2)nn1 | 49.2%
Nc1ccn(C2OC(CO)C(O)C2(F)F)c(=O)n1 (configuration not stated) + Nc1ccc(C#CCN(C(=O)Cc2ncc(C(F)(F)F)cc2C(F)(F)F)c2ccc(F)cc2)nn1 | 35.3%
O=C(c1cc(Cc2n[nH]c(=O)c3ccccc23)ccc1F)N1CCN(C(=O)C2CC2)CC1 + Nc1ccc(C#CCN(C(=O)Cc2ncc(C(F)(F)F)cc2C(F)(F)F)c2ccc(F)cc2)nn1 | 93.9%
O=c1[nH]cc(F)c(=O)[nH]1 + Nc1ccc(C#CCN(C(=O)Cc2ncc(C(F)(F)F)cc2C(F)(F)F)c2ccc(F)cc2)nn1 | 107%

Same assay, conditions: second compound 1 µM; first compound 0.316 µM; active compounds read low

Structure (SMILES) | viability, T/C
C=CCn1c(=O)c2cnc(Nc3ccc(N4CCN(C)CC4)cc3)nc2n1-c1cccc(C(C)(C)O)n1 + Nc1ccc(C#CCN(C(=O)Cc2ncc(C(F)(F)F)cc2C(F)(F)F)c2ccc(F)cc2)nn1 | 85.4%
CCc1c2c(nc3ccc(O)cc13)-c1cc3c(c(=O)n1C2)COC(=O)[C@]3(O)CC + Nc1ccc(C#CCN(C(=O)Cc2ncc(C(F)(F)F)cc2C(F)(F)F)c2ccc(F)cc2)nn1 | 66.5%
COc1cccc(OCCCN)c1-c1cc(Nc2cnc(C#N)cn2)n[nH]1 + Nc1ccc(C#CCN(C(=O)Cc2ncc(C(F)(F)F)cc2C(F)(F)F)c2ccc(F)cc2)nn1 | 43.8%
Nc1ccn(C2OC(CO)C(O)C2(F)F)c(=O)n1 (configuration not stated) + Nc1ccc(C#CCN(C(=O)Cc2ncc(C(F)(F)F)cc2C(F)(F)F)c2ccc(F)cc2)nn1 | 46.5%
O=C(c1cc(Cc2n[nH]c(=O)c3ccccc23)ccc1F)N1CCN(C(=O)C2CC2)CC1 + Nc1ccc(C#CCN(C(=O)Cc2ncc(C(F)(F)F)cc2C(F)(F)F)c2ccc(F)cc2)nn1 | 84.3%
O=c1[nH]cc(F)c(=O)[nH]1 + Nc1ccc(C#CCN(C(=O)Cc2ncc(C(F)(F)F)cc2C(F)(F)F)c2ccc(F)cc2)nn1 | 108%

Same assay, conditions: second compound 1 µM; first compound 1 µM; active compounds read low

Structure (SMILES) | viability, T/C
C=CCn1c(=O)c2cnc(Nc3ccc(N4CCN(C)CC4)cc3)nc2n1-c1cccc(C(C)(C)O)n1 + Nc1ccc(C#CCN(C(=O)Cc2ncc(C(F)(F)F)cc2C(F)(F)F)c2ccc(F)cc2)nn1 | 86.4%
CCc1c2c(nc3ccc(O)cc13)-c1cc3c(c(=O)n1C2)COC(=O)[C@]3(O)CC + Nc1ccc(C#CCN(C(=O)Cc2ncc(C(F)(F)F)cc2C(F)(F)F)c2ccc(F)cc2)nn1 | 46.3%
COc1cccc(OCCCN)c1-c1cc(Nc2cnc(C#N)cn2)n[nH]1 + Nc1ccc(C#CCN(C(=O)Cc2ncc(C(F)(F)F)cc2C(F)(F)F)c2ccc(F)cc2)nn1 | 29.3%
Nc1ccn(C2OC(CO)C(O)C2(F)F)c(=O)n1 (configuration not stated) + Nc1ccc(C#CCN(C(=O)Cc2ncc(C(F)(F)F)cc2C(F)(F)F)c2ccc(F)cc2)nn1 | 35%
O=C(c1cc(Cc2n[nH]c(=O)c3ccccc23)ccc1F)N1CCN(C(=O)C2CC2)CC1 + Nc1ccc(C#CCN(C(=O)Cc2ncc(C(F)(F)F)cc2C(F)(F)F)c2ccc(F)cc2)nn1 | 88.9%
O=c1[nH]cc(F)c(=O)[nH]1 + Nc1ccc(C#CCN(C(=O)Cc2ncc(C(F)(F)F)cc2C(F)(F)F)c2ccc(F)cc2)nn1 | 89.5%

Same assay, conditions: second compound 1 µM; first compound 3.16 µM; active compounds read low

Structure (SMILES) | viability, T/C
Nc1ccn(C2OC(CO)C(O)C2(F)F)c(=O)n1 (configuration not stated) + Nc1ccc(C#CCN(C(=O)Cc2ncc(C(F)(F)F)cc2C(F)(F)F)c2ccc(F)cc2)nn1 | 38.2%
O=C(c1cc(Cc2n[nH]c(=O)c3ccccc23)ccc1F)N1CCN(C(=O)C2CC2)CC1 + Nc1ccc(C#CCN(C(=O)Cc2ncc(C(F)(F)F)cc2C(F)(F)F)c2ccc(F)cc2)nn1 | 84.2%
O=c1[nH]cc(F)c(=O)[nH]1 + Nc1ccc(C#CCN(C(=O)Cc2ncc(C(F)(F)F)cc2C(F)(F)F)c2ccc(F)cc2)nn1 | 94.3%

Same assay, conditions: second compound 1 µM; first compound 10 µM; active compounds read low

Structure (SMILES) | viability, T/C
Nc1ccn(C2OC(CO)C(O)C2(F)F)c(=O)n1 (configuration not stated) + Nc1ccc(C#CCN(C(=O)Cc2ncc(C(F)(F)F)cc2C(F)(F)F)c2ccc(F)cc2)nn1 | 29.6%
O=C(c1cc(Cc2n[nH]c(=O)c3ccccc23)ccc1F)N1CCN(C(=O)C2CC2)CC1 + Nc1ccc(C#CCN(C(=O)Cc2ncc(C(F)(F)F)cc2C(F)(F)F)c2ccc(F)cc2)nn1 | 76.8%
O=c1[nH]cc(F)c(=O)[nH]1 + Nc1ccc(C#CCN(C(=O)Cc2ncc(C(F)(F)F)cc2C(F)(F)F)c2ccc(F)cc2)nn1 | 90.6%

Same assay, conditions: second compound 3.16 µM; first compound 0.00316 µM; active compounds read low

Structure (SMILES) | viability, T/C
C=CCn1c(=O)c2cnc(Nc3ccc(N4CCN(C)CC4)cc3)nc2n1-c1cccc(C(C)(C)O)n1 + Nc1ccc(C#CCN(C(=O)Cc2ncc(C(F)(F)F)cc2C(F)(F)F)c2ccc(F)cc2)nn1 | 91.2%
CCc1c2c(nc3ccc(O)cc13)-c1cc3c(c(=O)n1C2)COC(=O)[C@]3(O)CC + Nc1ccc(C#CCN(C(=O)Cc2ncc(C(F)(F)F)cc2C(F)(F)F)c2ccc(F)cc2)nn1 | 70.3%
COc1cccc(OCCCN)c1-c1cc(Nc2cnc(C#N)cn2)n[nH]1 + Nc1ccc(C#CCN(C(=O)Cc2ncc(C(F)(F)F)cc2C(F)(F)F)c2ccc(F)cc2)nn1 | 87.2%

Same assay, conditions: second compound 3.16 µM; first compound 0.01 µM; active compounds read low

Structure (SMILES) | viability, T/C
C=CCn1c(=O)c2cnc(Nc3ccc(N4CCN(C)CC4)cc3)nc2n1-c1cccc(C(C)(C)O)n1 + Nc1ccc(C#CCN(C(=O)Cc2ncc(C(F)(F)F)cc2C(F)(F)F)c2ccc(F)cc2)nn1 | 84.2%
CCc1c2c(nc3ccc(O)cc13)-c1cc3c(c(=O)n1C2)COC(=O)[C@]3(O)CC + Nc1ccc(C#CCN(C(=O)Cc2ncc(C(F)(F)F)cc2C(F)(F)F)c2ccc(F)cc2)nn1 | 64.5%
COc1cccc(OCCCN)c1-c1cc(Nc2cnc(C#N)cn2)n[nH]1 + Nc1ccc(C#CCN(C(=O)Cc2ncc(C(F)(F)F)cc2C(F)(F)F)c2ccc(F)cc2)nn1 | 74.6%

Same assay, conditions: second compound 3.16 µM; first compound 0.0316 µM; active compounds read low

Structure (SMILES) | viability, T/C
C=CCn1c(=O)c2cnc(Nc3ccc(N4CCN(C)CC4)cc3)nc2n1-c1cccc(C(C)(C)O)n1 + Nc1ccc(C#CCN(C(=O)Cc2ncc(C(F)(F)F)cc2C(F)(F)F)c2ccc(F)cc2)nn1 | 92.5%
CCc1c2c(nc3ccc(O)cc13)-c1cc3c(c(=O)n1C2)COC(=O)[C@]3(O)CC + Nc1ccc(C#CCN(C(=O)Cc2ncc(C(F)(F)F)cc2C(F)(F)F)c2ccc(F)cc2)nn1 | 52.7%
COc1cccc(OCCCN)c1-c1cc(Nc2cnc(C#N)cn2)n[nH]1 + Nc1ccc(C#CCN(C(=O)Cc2ncc(C(F)(F)F)cc2C(F)(F)F)c2ccc(F)cc2)nn1 | 44.3%
